Reference: patent EP0037495A1, “Pyrimidyl quinazolines, process for their preparation and pharmaceutical compositions containing them” (CASSELLA Aktiengesellschaft, priority 1980, dated 1981)

Tested on: normotonen narkotisierten Ratte
Assay: Blood pressure measurement in the normotensive anaesthetised rat
Assay type: in vivo
Details: mean; for WD min x̄ (Wirkungsdauer): time from onset of change until return to baseline
Experimental: 1. Blutdruckmessung an der normotonen narkotisierten Ratte
Männliche IVANOVAS-Ratten (300 - 340 g) des Stammes SIV 50 wurden durch Applikation von 66 mg/kg a-Chloralose (1,1 % Lösung, 0,6 ml/100 g) und 20 mg:kg Aprobarbital in die Schwanzvene narkotisiert. Die Trachea wurde kannuliert um die Spontanatmung zu erleichtern. Die Messung des Blutdruckes erfolgte blutig über einen in die Rechte A. carotis eingebundenen PE-Schlauch auf konventionelle Weise. Mittels eines Dreiwegehahnes konnte dieser PE-Schlauch zur i.a.-Applikation der Prüfsubstanzen benutzt werden, wobei jeweils ein Volumen von 0,1 ml injiziert wurde. Durch Nachspülen mit 0,9 % NaCl gelangten die Substanzen über die Vertebralarterie auch in Richtung Zentralnervensystem bevor die Verteilung im allgemeinen Kreislauf erfolgte.
Zahlenmäßig ausgewertet wurde die maximale systolische und diastolische Blutdrucksenkung sowie die maximale Änderung der Herzfrequenz. Als Wirkdauer galt die Zeit vom Eintritt der Veränderung bis zum Erreichen des Ausgangswertes.

Compound	WD min x̄ (Wirkungsdauer) (dose 0.01 mg/kg i.a.) [min]	HF Δ s/min x̄ (maximal change of heart rate, dose 0.1 mg/kg i.a.) [s/min]	WD min x̄ (Wirkungsdauer) (dose 0.1 mg/kg i.a.) [min]
COc1cc2nc(N3CCN(c4c([N+](=O)[O-])c(=O)n(C)c(=O)n4C)CC3)nc(N)c2cc1OC [*]	36		
COc1cc2nc(N3CCN(C(=O)c4ccco4)CC3)nc(N)c2cc1OC [Prazosin]		0	60
